# Residues, ends and D or L forms follow the SMILES beside them.
# Experiments:
# [1] = biological target: T1, human noradrenaline transporter (hNET) (Homo sapiens, UniProt P23975); test: biochemical; assay type: binding; conditions: for IC50: Av IC50 Displacement of 3H-nisoxetine from hNET
# T1 construct: expressed in transfected cells; host or cells: COS-7 cells (ATCC), transient transfection with metafectene
# [2] = biological target: T1, human noradrenaline transporter (hNET); test: cell-based
# T1 sequence (P23975 whole entry): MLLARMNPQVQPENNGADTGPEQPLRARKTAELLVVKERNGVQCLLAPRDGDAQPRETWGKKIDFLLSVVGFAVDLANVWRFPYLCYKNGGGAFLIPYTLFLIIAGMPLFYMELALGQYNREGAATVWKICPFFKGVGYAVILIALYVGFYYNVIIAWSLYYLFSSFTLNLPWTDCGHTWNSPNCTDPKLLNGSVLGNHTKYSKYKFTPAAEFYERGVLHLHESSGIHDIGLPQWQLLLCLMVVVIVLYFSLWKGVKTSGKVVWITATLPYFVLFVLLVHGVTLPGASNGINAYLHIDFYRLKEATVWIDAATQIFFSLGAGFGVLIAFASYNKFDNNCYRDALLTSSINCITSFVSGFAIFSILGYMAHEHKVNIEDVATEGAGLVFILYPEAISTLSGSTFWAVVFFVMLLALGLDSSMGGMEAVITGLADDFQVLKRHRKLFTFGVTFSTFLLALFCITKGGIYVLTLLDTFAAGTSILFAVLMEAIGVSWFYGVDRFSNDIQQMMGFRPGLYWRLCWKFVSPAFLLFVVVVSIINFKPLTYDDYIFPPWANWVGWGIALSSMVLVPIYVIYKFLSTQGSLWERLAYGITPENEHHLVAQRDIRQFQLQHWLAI
Compound,IC50 [1] [nM],IC50 [2] [nM],Av IC50 Displacement of 3H-nisoxetine from hNET [1]
CC(C)C[C@@H]1NC(=O)[C@H](CCCCN)NC(=O)[C@H](Cc2ccc(O)cc2)NC(=O)CNC(=O)[C@@H]2CSSC[C@H](NC1=O)C(=O)N[C@@H](Cc1c[nH]cn1)C(=O)N1CCC[C@H]1C(=O)N[C@H](C(N)=O)CSSC[C@H](NC(=O)[C@@H](NC(=O)CNC(=O)[C@H](CC(N)=O)NC(=O)[C@@H](N)Cc1c[nH]c3ccccc13)C(C)C)C(=O)N2 [compound 82],295,3160,–
"CC(C)C[C@H](NC(=O)[C@H](CC(=O)O)NC(=O)[C@H](CCCCN)NC(=O)[C@@H](N)Cc1c[nH]c2ccccc12)C(=O)N[C@H]1CSSC[C@@H](C(N)=O)NC(=O)[C@@H]2CCCN2C(=O)[C@H](Cc2c[nH]cn2)NC(=O)[C@@H]2CSSC[C@H](NC1=O)C(=O)NCC(=O)N[C@@H](Cc1ccc(O)cc1)C(=O)N[C@@H](CCCCN)C(=O)N[C@@H](CC(C)C)C(=O)N2 [compound 85] (HELM PEPTIDE1{W.K.D.L.C.C.G.Y.K.L.C.H.P.C.[am]}$PEPTIDE1,PEPTIDE1,5:R3-14:R3|PEPTIDE1,PEPTIDE1,6:R3-11:R3$$$V2.0)",309,89.1,–
CC(C)C[C@@H]1NC(=O)[C@H](CCCCN)NC(=O)[C@H](Cc2ccc(O)cc2)NC(=O)CNC(=O)[C@@H]2CSSC[C@H](NC1=O)C(=O)N[C@@H](CCCNC(=N)N)C(=O)N1CCC[C@H]1C(=O)N[C@H](C(N)=O)CSSC[C@H](NC(=O)[C@@H](NC(=O)CNC(=O)[C@H](CC(N)=O)NC(=O)[C@@H](N)Cc1ccc(O)cc1)C(C)C)C(=O)N2 [compound 89],339,112,–
"CC(C)C[C@@H]1NC(=O)[C@H](CCCCN)NC(=O)[C@H](Cc2ccc(O)cc2)NC(=O)CNC(=O)[C@@H]2CSSC[C@H](NC1=O)C(=O)N[C@@H](Cc1c[nH]c3ccccc13)C(=O)N1CCC[C@H]1C(=O)N[C@H](C(N)=O)CSSC[C@H](NC(=O)[C@@H](NC(=O)[C@H](CC(=O)O)NC(=O)[C@H](CCCCN)NC(=O)[C@@H](N)Cc1c[nH]c3ccccc13)C(C)C)C(=O)N2 [compound 92] (HELM PEPTIDE1{W.K.D.V.C.C.G.Y.K.L.C.W.P.C.[am]}$PEPTIDE1,PEPTIDE1,5:R3-14:R3|PEPTIDE1,PEPTIDE1,6:R3-11:R3$$$V2.0)",407,36.3,–
CC(C)C[C@@H]1NC(=O)[C@H](CCCCN)NC(=O)[C@H](Cc2ccc(O)cc2)NC(=O)CNC(=O)[C@@H]2CSSC[C@H](NC1=O)C(=O)N[C@@H](Cc1c[nH]cn1)C(=O)N1CCC[C@H]1C(=O)N[C@H](C(N)=O)CSSC[C@H](NC(=O)[C@@H](NC(=O)CNC(=O)[C@@H](N)CC(N)=O)C(C)C)C(=O)N2 [compound 146],3090,741,–
"CC(C)C[C@@H]1NC(=O)[C@H](CCCCN)NC(=O)[C@H](Cc2ccc(O)cc2)NC(=O)CNC(=O)[C@@H]2CSSC[C@H](NC1=O)C(=O)N[C@H](C(N)=O)CSSC[C@H](NC(=O)[C@@H](N)C(C)C)C(=O)N2 [compound 148] (HELM PEPTIDE1{V.C.C.G.Y.K.L.C.C.[am]}$PEPTIDE1,PEPTIDE1,2:R3-9:R3|PEPTIDE1,PEPTIDE1,3:R3-8:R3$$$V2.0)",3160,347,–
"CC(C)[C@H](NC(=O)CNC(=O)[C@@H](N)CC(N)=O)C(=O)N[C@H]1CSSC[C@@H](C(N)=O)NC(=O)[C@@H]2CCCN2C(=O)[C@H](Cc2c[nH]cn2)NC(=O)[C@@H]2CSSC[C@H](NC1=O)C(=O)NCC(=O)N[C@@H](Cc1ccc(O)cc1)C(=O)N[C@@H](CCCCN)C(=O)N[C@@H](CCCCN)C(=O)N2 [compound 196] (HELM PEPTIDE1{N.G.V.C.C.G.Y.K.K.C.H.P.C.[am]}$PEPTIDE1,PEPTIDE1,4:R3-13:R3|PEPTIDE1,PEPTIDE1,5:R3-10:R3$$$V2.0)",182000,–,–
"CC(C)C[C@@H]1NC(=O)[C@H](CCCCN)NC(=O)[C@H](CCCCN)NC(=O)CNC(=O)[C@@H]2CSSC[C@H](NC1=O)C(=O)N[C@@H](Cc1c[nH]cn1)C(=O)N1CCC[C@H]1C(=O)N[C@H](C(N)=O)CSSC[C@H](NC(=O)[C@@H](NC(=O)CNC(=O)[C@H](CC(N)=O)NC(=O)[C@@H](N)Cc1ccc(O)cc1)C(C)C)C(=O)N2 [compound 201] (HELM PEPTIDE1{Y.N.G.V.C.C.G.K.K.L.C.H.P.C.[am]}$PEPTIDE1,PEPTIDE1,5:R3-14:R3|PEPTIDE1,PEPTIDE1,6:R3-11:R3$$$V2.0)",437000,–,–
YNGVCCGYILCHPC [compound 208],–,–,−2.00
YNGVCCGYKDCHPC [compound 209],–,–,−2.00
YNGVCCGYKLCEPC [compound 210],–,–,−2.00
YNGVCCGYKLCRPC [compound 207],–,–,−2.00
YNGVCCGYWLCHPC [compound 211],–,–,−2.00
YNGVCCGYYLCHPC [compound 212],–,–,−2.00
